According to patent publication US20080248008A1, “Inhibitors of Protein Kinase a Anchoring” (priority 2004, published 2008):

Experiments:
RI (A98S) = molecular target: T1, RI (A98S) (Bos taurus, UniProt P00514, A98S); test: R-overlay (solid-phase binding) of 32P-labelled RI on membrane-synthesized peptides; design: species or system bovine
T1 construct: made in house; host or cells: E. coli BL21 (B121 [sic])
Protocol: Autospot Peptide Array. Peptide arrays were synthesized on cellulose paper by using an Autospot Robot ASP222 (ABiMED, Langenfeld, Germany) as described (Frank, R., 1992, Tetrahedron 48, 123-132) or Multipep automated peptide synthesizer (INTAVIS Bioanalytical Instruments AG, Koeln, Germany) as described (Frank, R., 1992, Tetrahedron 48, 123-132).
R-overlay. R-overlays were conducted as described, using ^32P-labeled recombinant murine RII (Hausken, Z. E., et al., 1998 in Protein Targeting Protocols, ed. Clegg, R. A. (Humana, Totowa, N.J.), Vol. 88, pp. 47-64) or recombinant bovine RI (A98S) or by cold RI-overlay where bound RIα was detected by Western blot. Cold RI-overlay was performed by incubating the membranes with 250 nM RI overnight at 4° C., then the membranes were washed five times in TBST for 5 min. Detection of RI was performed using an anti-RI rabbit polyclonal antibody (Santa Cruz) at a concentration of 0.2 μg/μl for 1 hour at 4° C. Then the membranes were washed five times for 5 minutes in PBS followed by incubation with HRP-conjugated anti-rabbit IgGs (1:5000) for 1 hour at 4° C. The membranes were washed in PBS as described above before detection by Supersignal West Dura Extended Duration Substrate (Pierce).
Densitometric analysis. The densitometric analysis was performed using Scion Image (www.scioncorp.com) (Scion Coorperation, Mo., USA) or Quantity One version 4.5.0, (BioRad).

RIIα = molecular target: T2, RIIα (Mus musculus, UniProt P12367); test: Fluorescence polarization, dissociation constant for RII; format: binding; conditions: qualitative
T2 construct: His tag; made in house; host or cells: E. coli BL21 (B121 [sic])
Protocol: Fluorescence Polarization. FITC-labeled peptides (SynPep, San Diego) that were used for fluorescence polarization studies included MEME3 (LEQYANQLADQIIKEATEK(5-Carboxyfluorescein)-CONH2) and MEME3 scrambled peptide (IEKELAQQYQNADAITLEK(5-Carboxyfluorescein)-CONH2). Peptides (0.5 nM for RI experiments and 1 nM for RII experiments) were suspended to working dilutions in phosphate-buffered saline containing 5 μg/μl BSA, pH 7.0. Increasing concentrations of recombinant bovine RI wt or recombinant murine RII were added to a PBS solution and mixed with each FITC-labeled peptide. Each sample was incubated for 2.5 hours. Fluorescence polarization was measured on a Beacon 2000 (Panvera, Madison, Wis.), following the manufacturer's instructions. Saturation binding curves were generated with PRISM graphing software (GraphPad, San Diego). Dissociation constants (Kd) were calculated from the nonlinear regression curve from averages of minimum three individual experiments.
Protein expression and purification. Human RI, Bovine RI and N-terminal deletions thereof or murine RII was expressed in E. coli B121 by IPTG induction. The RI containing pellet was incubated in lysis buffer (10 mM MOPS, pH 6.5, 100 mM NaCl, 10 μM DTT added protease inhibitors) and sonicated (Branson Sonifier 250) for 1 minute in three intervals at 0° C. […]

[1] = molecular target: T3, PKA type I in lipid rafts of human peripheral blood T cells (Homo sapiens, UniProt P10644); test: PKA type I content of lipid rafts from human T cells (immunoblot densitometry); format: cell-based; conditions: n=4; for reduction of PKA type I in lipid rafts: 12 hours
T3 construct: endogenous in cells; host or cells: human peripheral blood T cells
Protocol: Lipid Raft Purification. Isolation of lipid rafts or glycolipid-enriched membrane microdomains was performed as described in detail elsewhere (Zhang, W. et al., 1998, Immunity 9:239-246). In brief, cells were homogenized in 1 ml ice-cold lysis buffer (50 mM Hepes, pH 7.4, 100 mM NaCl, 5 mM EDTA, […], 10 mM sodium pyrophosphate, 1 mM Na3VO4, 50 mM NaF, 1 mM PMSF, and protease inhibitors) by 10 pestle strokes in a Dounce homogenizer, loaded at the bottom of a 40-5% sucrose gradient and centrifuged at 200,000 g for 5 or 20 h. 80 μl or 0.4-ml fractions were collected from the top. The fractions were analysed by immunoblot analysis. LAT was used as a marker for lipid raft fractions.
Isolation of T cells. Human peripheral blood T cells were purified by negative selection (95-98% pure) as described (Aandahl E M et al., 1998, FASEB J. 12:855-62). Lipid Raft Purification. Isolation of lipid rafts or glycosphingolipid-enriched membrane microdomains from T cells was performed by small scale ultracentrifugation. In brief, 20 million cells were homogenized in 250 μl ice-cold lysis buffer (50 mM Hepes, pH 7.4, 100 mM NaCl, 5 mM EDTA, […], 10 mM sodium pyrophosphate, 1 mM Na3VO4, 50 mM NaF, 1 mM PMSF, and protease inhibitors) by 10 pestle strokes in a Dounce homogenizer, loaded at the bottom of a 40 to 50 sucrose gradient and centrifuged at 200,000 g for 5 h. 80 μl fractions were collected from the top. The fractions were analysed by immunoblot analysis. LAT was used as a marker for lipid raft fractions. […]
Lipid rafts were purified from isolated human peripheral blood T cells treated with MEME3-Arg11 or SM3-Arg11 for 12 hours, followed by 10% PAGE and blotting onto a PVDF membrane and immunoblotting (FIG. 18, left panel). The PKA content was measured by densitometry of immunoblots (n=4). […] The very weak signal observed after immunoblotting using antibodies against RIIα (data not shown) was measured by densitometry of the autoradiogram. […]

T1 sequence (P00514 whole entry A98S): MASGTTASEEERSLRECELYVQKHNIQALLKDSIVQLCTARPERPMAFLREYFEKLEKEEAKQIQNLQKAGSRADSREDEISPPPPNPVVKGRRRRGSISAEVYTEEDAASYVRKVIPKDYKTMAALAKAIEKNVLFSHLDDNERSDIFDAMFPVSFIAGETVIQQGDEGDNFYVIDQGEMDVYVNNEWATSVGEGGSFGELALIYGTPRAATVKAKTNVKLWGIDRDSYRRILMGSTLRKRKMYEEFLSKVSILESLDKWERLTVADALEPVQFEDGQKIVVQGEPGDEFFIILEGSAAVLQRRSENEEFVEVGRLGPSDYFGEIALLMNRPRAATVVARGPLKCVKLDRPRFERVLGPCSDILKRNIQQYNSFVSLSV
T2 sequence (P12367 whole entry): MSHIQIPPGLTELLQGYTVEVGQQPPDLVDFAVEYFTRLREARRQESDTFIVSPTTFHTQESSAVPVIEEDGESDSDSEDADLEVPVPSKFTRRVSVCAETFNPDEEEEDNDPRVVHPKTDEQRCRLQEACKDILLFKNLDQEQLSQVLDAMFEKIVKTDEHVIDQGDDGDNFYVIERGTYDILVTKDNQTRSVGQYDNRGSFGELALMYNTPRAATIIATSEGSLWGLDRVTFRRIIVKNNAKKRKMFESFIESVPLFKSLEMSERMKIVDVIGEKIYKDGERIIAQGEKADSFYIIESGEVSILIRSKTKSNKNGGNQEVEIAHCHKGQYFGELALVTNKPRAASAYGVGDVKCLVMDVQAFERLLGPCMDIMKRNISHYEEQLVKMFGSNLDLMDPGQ

**Q.** Which results are given for `CC[C@H](C)[C@H](NC(=O)[C@H](CCC(N)=O)NC(=O)[C@H](CC(=O)O)NC(=O)[C@H](C)NC(=O)[C@H](CC(C)C)NC(=O)[C@H](CCC(N)=O)NC(=O)[C@H](CC(N)=O)NC(=O)[C@H](C)NC(=O)[C@H](Cc1ccc(O)cc1)NC(=O)[C@H](CCC(N)=O)NC(=O)[C@H](CCC(=O)O)NC(=O)[C@@H](N)CC(C)C)C(=O)N[C@H](C(=O)N[C@@H](CCCCN)C(=O)N[C@@H](CCC(=O)O)C(=O)N[C@@H](C)C(=O)N[C@H](C(=O)N[C@@H](CCC(=O)O)C(=O)N[C@@H](CCCCNC(=O)c1ccc2c(c1)C(=O)OC21c2ccc(O)cc2Oc2cc(O)ccc21)C(N)=O)[C@@H](C)O)[C@@H](C)CC` [MEME3]?
**A.** competition of RI-binding to membrane-bound MEME3 (RI (A98S); 500 nM peptide in solution): competed the RI-binding; affinity for RI compared to that of PDSM (RI (A98S); densitometry of autoradiographs, n=3, higher): 1.9 times; RI binding (RI-32P-overlay, autoradiography) (RI (A98S); peptides on membrane, qualitative): bound with high affinity to RIα

**Q.** “IEKELAQQYQNADAITLE [SM3, scrambled MEME3 negative control peptide, reference compound]” was tested. Which “interaction with RII subunit” value (RIIα) did it give?
**A.** The value was “did not interact with either R subunit”.

**Q.** With “LEQYANQLADQIIKEATERRRRRRRRRrr [MEME3-Arg11]” as the compound, how does the “reduction of PKA type I in lipid rafts” value ([1]; 10 μM) read?
**A.** Its value is 80%.

**Q.** And the “reduction of RI and C concentration in lipid rafts compared to SM3” value ([1]; 10 μM, primary human T cells)?
**A.** Its value is 80%.

**Q.** And the “reduction of PKA type I in lipid rafts” value ([1]; 25 μM)?
**A.** The value was 90%.
